Laboratory results from patent US11000033B2, “Ketone or oxime compound, and herbicide” (NISSAN CHEMICAL CORPORATION, priority 2014, dated 2021).

Legend:
Type in all cases: in vivo
Setaria viridis [1] = assay: Test Example 5: herbicidal effect by foliage application, plastic box (symbol G); details: 320 g/ha, 3 weeks after application
Outline: (§1)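 Herbicide, formulated as an emulsion and diluted in water, is sprayed onto the aerial parts of 14-day seedlings. These were grown at 25° C. to 30° C. in sterilized diluvial soil; effects are graded after 3 weeks.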

wheat [2] = assay: Test Example 4: effect on crop by soil treatment (symbol e); details: for e: wheat, effect on crop grade: application herbicide amount 320 g/ha; for e: wheat, effect grade on crop: 320 g/ha
Outline: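 Plants grew in a 25° C. to 30° C. greenhouse after spot-sowing of seeds, including beet, rapeseed, wheat and rice, into sterilized diluvial soil under roughly 1.5 cm of cover soil.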

Lolium multiflorum Lam. = assay: Test Example 4: herbicidal effect by soil treatment (symbol K)
Outline: (§2)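 Seeds were sown in sterilized diluvial soil, covered with about 1.5 cm of soil, and the soil surface was sprayed with a water-diluted emulsion of the compound at a predetermined rate. Plants grew in a greenhouse at 25° C. to 30° C.; effects were scored visually 3 weeks after application.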

Setaria viridis [3] = assay: Test Example 4: herbicidal effect by soil treatment (symbol G)
Outline: as §2

wheat [4] = assay: Test Example 5: effect on crop by foliage application, plastic box (symbol e); details: 320 g/ha, 3 weeks after application
Outline: (§3)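 Foliage-application test plants come from spot sowing in sterilized diluvial soil under a soil layer of about 1.5 cm, grown at 25° C. to 30° C. in a greenhouse.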

Abutilon theophrasti = assay: Test Example 5: herbicidal effect by foliage application, plastic box (symbol M); details: 320 g/ha, 3 weeks after application
Outline: as §1

Stellaria media [5] = assay: Test Example 5: herbicidal effect by foliage application, plastic box (symbol P); details: 320 g/ha, 3 weeks after application
Outline: as §1

[6] = tested on: Echinochloa oryzacola Vasing.; assay: Test Example 1: herbicidal activity, application before weed generation in submerged conditions (symbol A); details: application herbicide amount 320 g/ha
Outline: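 Pre-emergence, paddy conditions: emulsifiable formulation diluted in water, dosed onto floodwater (4 cm depth) on sowing day. Alluvial soil; weeds sown mixed; rice transplanted at 2.5-leaf stage. Greenhouse 25–30 °C, 3 wk. Score 0–5 (5 = ≥90% kill, 0 = ≤5%).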

[7] = tested on: Echinochloa crus-galli var. crus-galli; assay: Test Example 3: herbicidal effect by foliage application, Wagner pot (symbol H); details: application herbicide amount 320 g/ha
Outline: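 In a shallow-flooded alluvial soil system held at 25–30 °C, plants including rice grew for 14 days and were then sprayed over the foliage with emulsion diluted to a fixed herbicide amount. Visual rating followed at 3 weeks.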

Amaranthus retroflexus [8] = assay: Test Example 5: herbicidal effect by foliage application, plastic box (symbol N); details: 320 g/ha, 3 weeks after application
Outline: as §1

beet = assay: Test Example 5: effect on crop by foliage application, plastic box (symbol f); details: 320 g/ha, 3 weeks after application
Outline: as §3

transplanted rice plant = assay: Test Example 1: effect on crop, application before weed generation in submerged conditions (symbol a); details: application herbicide amount 320 g/ha
Outline: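 Rice at 2.5 leaf stage transplanted into submerged soil (4 cm depth) sown with three weed species; herbicide applied before weed emergence.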

Amaranthus retroflexus [9] = assay: Test Example 4: herbicidal effect by soil treatment (symbol N)
Outline: as §2

Stellaria media [10] = assay: Test Example 4: herbicidal effect by soil treatment (symbol P)
Outline: as §2

Avena fatua = assay: Test Example 5: herbicidal effect by foliage application, plastic box (symbol I); details: 320 g/ha, 3 weeks after application
Outline: as §1

[11] = application herbicide amount 320 g/ha

CON=C(C)CC1CC(O)=C(c2c(C)cc(C)cc2Br)C1=O (stereo not drawn) [6-038]
G: Setaria viridis, herbicidal effect grade (Setaria viridis [1]): 5 (Herbicidal ratio of 90% or more (almost completely withered))
e: wheat, effect on crop grade (wheat [2]): 1 (Herbicidal ratio of 5% or higher and lower than 20%)
K: Lolium multiflorum Lam., herbicidal effect grade (Lolium multiflorum Lam.; [11]): 5 (Herbicidal ratio of 90% or more (almost completely withered))
G: Setaria viridis, herbicidal effect grade (Setaria viridis [3]; [11]): 4 (Herbicidal ratio of 70% or higher and lower than 90%)
e: wheat, effect on crop grade (wheat [4]): 3 (Herbicidal ratio of 40% or higher and lower than 70%)
M: Abutilon theophrasti, herbicidal effect grade (Abutilon theophrasti): 5 (Herbicidal ratio of 90% or more (almost completely withered))
P: Stellaria media, herbicidal effect grade (Stellaria media [5]): 4 (Herbicidal ratio of 70% or higher and lower than 90%)
Herbicidal effect grade, A: Echinochloa oryzacola Vasing. [6]: 5 (Herbicidal ratio of 90% or more (almost completely withered))
herbicidal effect on H (Echinochloa crus-galli var. crus-galli), grade 0-5 [7]: 5 (Herbicidal ratio of 90% or more (almost completely withered))
N: Amaranthus retroflexus, herbicidal effect grade (Amaranthus retroflexus [8]): 5 (Herbicidal ratio of 90% or more (almost completely withered))
f: beet, effect on crop grade (beet): 0 (Herbicidal ratio of 5% or lower (almost no effect))
Effect grade on crop, a: transplanted rice plant (transplanted rice plant): 5 (Herbicidal ratio of 90% or more (almost completely withered))
N: Amaranthus retroflexus, herbicidal effect grade (Amaranthus retroflexus [9]; [11]): 4 (Herbicidal ratio of 70% or higher and lower than 90%)
P: Stellaria media, herbicidal effect grade (Stellaria media [10]; [11]): 0 (Herbicidal ratio of 5% or lower (almost no effect))
I: Avena fatua, herbicidal effect grade (Avena fatua): 5 (Herbicidal ratio of 90% or more (almost completely withered))

CON=C(C)CC1CC(OC(=O)N2CCN(C)CC2)=C(c2c(C)cc(C)cc2C)C1=O (stereo not drawn) [1-152]
G: Setaria viridis, herbicidal effect (criteria 0-5) (Setaria viridis [1]): 5 (Herbicidal ratio of 90% or more (almost completely withered))
e: wheat, effect grade on crop (wheat [2]): 0 (Herbicidal ratio of 5% or lower (almost no effect))
K: Lolium multiflorum Lam., herbicidal effect grade (Lolium multiflorum Lam.; 320 g/ha): 2 (Herbicidal ratio of 20% or higher and lower than 40%)
G: Setaria viridis, herbicidal effect grade (Setaria viridis [3]; 320 g/ha): 0 (Herbicidal ratio of 5% or lower (almost no effect))
e: wheat, effect on crop (criteria 0-5) (wheat [4]): 3 (Herbicidal ratio of 40% or higher and lower than 70%)
M: Abutilon theophrasti, herbicidal effect (criteria 0-5) (Abutilon theophrasti): 4 (Herbicidal ratio of 70% or higher and lower than 90%)
P: Stellaria media, herbicidal effect (criteria 0-5) (Stellaria media [5]): 0 (Herbicidal ratio of 5% or lower (almost no effect))
Herbicidal effect grade, A: Echinochloa oryzacola Vasing. [6]: 4 (Herbicidal ratio of 70% or higher and lower than 90%)
herbicidal effect on H (Echinochloa crus-galli var. crus-galli), grade 0-5 [7]: 5 (Herbicidal ratio of 90% or more (almost completely withered))
N: Amaranthus retroflexus, herbicidal effect (criteria 0-5) (Amaranthus retroflexus [8]): 3 (Herbicidal ratio of 40% or higher and lower than 70%)
f: beet, effect on crop (criteria 0-5) (beet): 0 (Herbicidal ratio of 5% or lower (almost no effect))
Effect grade on crop, a: transplanted rice plant (transplanted rice plant): 2 (Herbicidal ratio of 20% or higher and lower than 40%)
N: Amaranthus retroflexus, herbicidal effect grade (Amaranthus retroflexus [9]; 320 g/ha): 0 (Herbicidal ratio of 5% or lower (almost no effect))
P: Stellaria media, herbicidal effect grade (Stellaria media [10]; 320 g/ha): 0 (Herbicidal ratio of 5% or lower (almost no effect))
I: Avena fatua, herbicidal effect (criteria 0-5) (Avena fatua): 4 (Herbicidal ratio of 70% or higher and lower than 90%)

CON=C(C)CC1CC(OS(=O)(=O)CCCCl)=C(c2c(C)cc(C)cc2C)C1=O (stereo not drawn) [1-142]
G: Setaria viridis, herbicidal effect (criteria 0-5) (Setaria viridis [1]): 5 (Herbicidal ratio of 90% or more (almost completely withered))
e: wheat, effect grade on crop (wheat [2]): 3 (Herbicidal ratio of 40% or higher and lower than 70%)
K: Lolium multiflorum Lam., herbicidal effect grade (Lolium multiflorum Lam.; 320 g/ha): 5 (Herbicidal ratio of 90% or more (almost completely withered))
G: Setaria viridis, herbicidal effect grade (Setaria viridis [3]; 320 g/ha): 5 (Herbicidal ratio of 90% or more (almost completely withered))
e: wheat, effect on crop (criteria 0-5) (wheat [4]): 4 (Herbicidal ratio of 70% or higher and lower than 90%)
M: Abutilon theophrasti, herbicidal effect (criteria 0-5) (Abutilon theophrasti): 4 (Herbicidal ratio of 70% or higher and lower than 90%)
P: Stellaria media, herbicidal effect (criteria 0-5) (Stellaria media [5]): 3 (Herbicidal ratio of 40% or higher and lower than 70%)
Herbicidal effect grade, A: Echinochloa oryzacola Vasing. [6]: 5 (Herbicidal ratio of 90% or more (almost completely withered))
herbicidal effect on H (Echinochloa crus-galli var. crus-galli), grade 0-5 [7]: 5 (Herbicidal ratio of 90% or more (almost completely withered))
N: Amaranthus retroflexus, herbicidal effect (criteria 0-5) (Amaranthus retroflexus [8]): 0 (Herbicidal ratio of 5% or lower (almost no effect))
f: beet, effect on crop (criteria 0-5) (beet): 3 (Herbicidal ratio of 40% or higher and lower than 70%)
Effect grade on crop, a: transplanted rice plant (transplanted rice plant): 5 (Herbicidal ratio of 90% or more (almost completely withered))
N: Amaranthus retroflexus, herbicidal effect grade (Amaranthus retroflexus [9]; 320 g/ha): 0 (Herbicidal ratio of 5% or lower (almost no effect))
P: Stellaria media, herbicidal effect grade (Stellaria media [10]; 320 g/ha): 0 (Herbicidal ratio of 5% or lower (almost no effect))
I: Avena fatua, herbicidal effect (criteria 0-5) (Avena fatua): 5 (Herbicidal ratio of 90% or more (almost completely withered))

CON=C(C)CC1CC(OC(=O)Cc2ccc(OC)cc2)=C(c2c(C)cc(C)cc2C)C1=O (stereo not drawn) [1-156]
G: Setaria viridis, herbicidal effect grade (Setaria viridis [1]): 5 (Herbicidal ratio of 90% or more (almost completely withered))
e: wheat, effect grade on crop (wheat [2]): 5 (Herbicidal ratio of 90% or more (almost completely withered))
K: Lolium multiflorum Lam., herbicidal effect grade (Lolium multiflorum Lam.; 320 g/ha): 5 (Herbicidal ratio of 90% or more (almost completely withered))
G: Setaria viridis, herbicidal effect grade (Setaria viridis [3]; 320 g/ha): 5 (Herbicidal ratio of 90% or more (almost completely withered))
e: wheat, effect on crop grade (wheat [4]): 5 (Herbicidal ratio of 90% or more (almost completely withered))
M: Abutilon theophrasti, herbicidal effect grade (Abutilon theophrasti): 4 (Herbicidal ratio of 70% or higher and lower than 90%)
P: Stellaria media, herbicidal effect grade (Stellaria media [5]): 3 (Herbicidal ratio of 40% or higher and lower than 70%)
Herbicidal effect grade, A: Echinochloa oryzacola Vasing. [6]: 5 (Herbicidal ratio of 90% or more (almost completely withered))
herbicidal effect on H (Echinochloa crus-galli var. crus-galli), grade 0-5 [7]: 5 (Herbicidal ratio of 90% or more (almost completely withered))
N: Amaranthus retroflexus, herbicidal effect grade (Amaranthus retroflexus [8]): 3 (Herbicidal ratio of 40% or higher and lower than 70%)
f: beet, effect on crop grade (beet): 3 (Herbicidal ratio of 40% or higher and lower than 70%)
Effect grade on crop, a: transplanted rice plant (transplanted rice plant): 5 (Herbicidal ratio of 90% or more (almost completely withered))
N: Amaranthus retroflexus, herbicidal effect grade (Amaranthus retroflexus [9]; 320 g/ha): 5 (Herbicidal ratio of 90% or more (almost completely withered))
P: Stellaria media, herbicidal effect grade (Stellaria media [10]; 320 g/ha): 2 (Herbicidal ratio of 20% or higher and lower than 40%)
I: Avena fatua, herbicidal effect grade (Avena fatua): 5 (Herbicidal ratio of 90% or more (almost completely withered))

Cc1cc(C)c(C2=C(O)CC(CC(=O)C(C)(C)C)C2=O)c(C)c1 (stereo not drawn) [2-022]
G: Setaria viridis, herbicidal effect grade (Setaria viridis [1]): 0 (Herbicidal ratio of 5% or lower (almost no effect))
e: wheat, effect on crop grade (wheat [2]): 0 (Herbicidal ratio of 5% or lower (almost no effect))
K: Lolium multiflorum Lam., herbicidal effect grade (Lolium multiflorum Lam.; [11]): 4 (Herbicidal ratio of 70% or higher and lower than 90%)
G: Setaria viridis, herbicidal effect grade (Setaria viridis [3]; [11]): 4 (Herbicidal ratio of 70% or higher and lower than 90%)
e: wheat, effect on crop grade (wheat [4]): 0 (Herbicidal ratio of 5% or lower (almost no effect))
M: Abutilon theophrasti, herbicidal effect grade (Abutilon theophrasti): 0 (Herbicidal ratio of 5% or lower (almost no effect))
P: Stellaria media, herbicidal effect grade (Stellaria media [5]): 0 (Herbicidal ratio of 5% or lower (almost no effect))
Herbicidal effect grade, A: Echinochloa oryzacola Vasing. [6]: 1 (Herbicidal ratio of 5% or higher and lower than 20%)
herbicidal effect on H (Echinochloa crus-galli var. crus-galli), grade 0-5 [7]: 1 (Herbicidal ratio of 5% or higher and lower than 20%)
N: Amaranthus retroflexus, herbicidal effect grade (Amaranthus retroflexus [8]): 0 (Herbicidal ratio of 5% or lower (almost no effect))
f: beet, effect on crop grade (beet): 0 (Herbicidal ratio of 5% or lower (almost no effect))
Effect grade on crop, a: transplanted rice plant (transplanted rice plant): 3 (Herbicidal ratio of 40% or higher and lower than 70%)
N: Amaranthus retroflexus, herbicidal effect grade (Amaranthus retroflexus [9]; [11]): 0 (Herbicidal ratio of 5% or lower (almost no effect))
P: Stellaria media, herbicidal effect grade (Stellaria media [10]; [11]): 0 (Herbicidal ratio of 5% or lower (almost no effect))
I: Avena fatua, herbicidal effect grade (Avena fatua): 0 (Herbicidal ratio of 5% or lower (almost no effect))
